Test results reported in US20170334899A1, “AMINO-SUBSTITUTED ISOTHIAZOLES” (Bayer Pharma Aktiengesellschaft, priority 2014, published 2017).
pIC50: −log10 of the molar value. Values joined by “and” are separate entries in the source; they are usually repeats but may differ in a detail not shown here. Equal values may be shown once.

What was measured:
CDK2/CycE = molecular target: T1, CDK2/CycE (Homo sapiens, UniProt P24941); assay: CDK2/CycE kinase assay (TR-FRET); format: biochemical; conditions: avg, read-out: CDK2 avg (IC50 [mol/l])
T1 construct: GST; purchased ProQinase GmbH (Freiburg, Germany); host or cells: insect cells (Sf9)
In short: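 Read-out is a TR-FRET 665/620 nm emission ratio from EDTA-stopped reactions detected with anti-pRB(pSer807/pSer811), Eu-labelled anti-mouse IgG and streptavidin-XL665, scaled between no-enzyme and uninhibited wells. Reaction: Sf9-expressed GST-CDK2/GST-CycE, 15 min compound preincubation, 10 μM ATP, 0.75 μM biotin-peptide, 25 min, 22° C., pH 8.0 Tris buffer.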

[1] = molecular target: T2, catalytic domain of human Bub1 (amino acids 704-1085) (Homo sapiens, UniProt O43683); assay: Bub1 kinase assay (TR-FRET); format: biochemical; conditions: 10 μM ATP, avg, read-out: Bub1 avg (IC50 [mol/l])
T2 construct: catalytic domain of human Bub1 (amino acids 704-1085); His6 (N); made in house; host or cells: insect cells (Hi5)
In short: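 Readout is the 665/620 nm TR-FRET ratio from anti-phosphoserine antibody, Eu-labelled anti-mouse IgG and streptavidin-XL665, scaled between no-enzyme and uninhibited controls. Reaction: 1 μM biotinylated peptide, 10 μM ATP, 60 min, 22 °C, after 15 min compound preincubation with His6-Bub1 (704-1085, insect-expressed, ~200 ng/ml).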

T2 sequence (O43683 704-1085): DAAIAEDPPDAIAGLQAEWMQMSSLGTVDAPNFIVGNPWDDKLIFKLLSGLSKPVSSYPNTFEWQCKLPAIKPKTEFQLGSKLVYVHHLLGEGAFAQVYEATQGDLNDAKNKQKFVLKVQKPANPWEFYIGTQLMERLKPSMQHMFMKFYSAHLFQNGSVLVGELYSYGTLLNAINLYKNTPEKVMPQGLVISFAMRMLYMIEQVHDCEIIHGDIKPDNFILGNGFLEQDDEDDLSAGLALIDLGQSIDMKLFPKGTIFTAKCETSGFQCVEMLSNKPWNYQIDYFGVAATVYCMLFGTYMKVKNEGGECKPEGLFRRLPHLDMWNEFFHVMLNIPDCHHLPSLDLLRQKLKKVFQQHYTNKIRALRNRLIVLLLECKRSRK

For `Cc1nsc(Nc2cnc(C(F)(F)F)cn2)c1C(=O)Nc1ccc(O[C@@H]2CCN(CCC(F)(F)F)C[C@@H]2F)nc1` [Example 139, N-(6-{[(3S,4R)-3-fluoro-1-(3,3,3-trifluoropropyl)piperidin-4-yl]oxy}pyridin-3-yl)-3-methyl-5-{[5-(trifluoromethyl)pyrazin-2-yl]amino}-1,2-thiazole-4-carboxamide], the pIC50 (CDK2/CycE) was under 4.70 and the pIC50 [1] was under 4.70.

`CCCN1CC[C@@H](Oc2ccc(NC(=O)c3c(C)nsc3Nc3cnc(C(F)(F)F)cn3)cn2)[C@@H](F)C1` [Example 140, N-(6-{[(3S,4R)-3-fluoro-1-propylpiperidin-4-yl]oxy}pyridin-3-yl)-3-methyl-5-{[5-(trifluoromethyl)pyrazin-2-yl]amino}-1,2-thiazole-4-carboxamide] gave a pIC50 (CDK2/CycE) of under 4.70 and a pIC50 [1] of under 4.70.

`CCCCN1CC[C@@H](Oc2ccc(NC(=O)c3c(C)nsc3Nc3cnc(C(F)(F)F)cn3)cn2)[C@@H](F)C1` [Example 141, N-(6-{[(3S,4R)-1-butyl-3-fluoropiperidin-4-yl]oxy}pyridin-3-yl)-3-methyl-5-{[5-(trifluoromethyl)pyrazin-2-yl]amino}-1,2-thiazole-4-carboxamide] gave a pIC50 (CDK2/CycE) of under 4.70 and a pIC50 [1] of at most 4.70.

Work on `Cc1nsc(Nc2cnc(C(F)(F)F)cn2)c1C(=O)Nc1ccc(O[C@H]2CCN(CC(F)F)C[C@H]2F)nc1` [Example 144, N-(6-{[(3R,4S)-1-(2,2-difluoroethyl)-3-fluoropiperidin-4-yl]oxy}pyridin-3-yl)-3-methyl-5-{[5-(trifluoromethyl)pyrazin-2-yl]amino}-1,2-thiazole-4-carboxamide] yielded a pIC50 (CDK2/CycE) of under 4.70 and a pIC50 [1] of under 4.70.

With `Cc1nsc(Nc2cnc(C(F)(F)F)cn2)c1C(=O)Nc1ccc(O[C@H]2CCN(CC(F)(F)F)C[C@H]2F)nc1` [Example 145, N-(6-{[(3R,4S)-3-fluoro-1-(2,2,2-trifluoroethyl)piperidin-4-yl]oxy}pyridin-3-yl)-3-methyl-5-{[5-(trifluoromethyl)pyrazin-2-yl]amino}-1,2-thiazole-4-carboxamide] the pIC50 (CDK2/CycE) was under 4.70 and the pIC50 [1] was under 4.70.

In the case of `Cc1nsc(Nc2cnc(C(F)(F)F)cn2)c1C(=O)Nc1ccc(O[C@H]2CCN(CCC(F)(F)F)C[C@H]2F)nc1` [Example 146, N-(6-{[(3R,4S)-3-fluoro-1-(3,3,3-trifluoropropyl)piperidin-4-yl]oxy}pyridin-3-yl)-3-methyl-5-{[5-(trifluoromethyl)pyrazin-2-yl]amino}-1,2-thiazole-4-carboxamide], the pIC50 (CDK2/CycE) was under 4.70 and the pIC50 [1] was under 4.70.

`CCCN1CC[C@H](Oc2ccc(NC(=O)c3c(C)nsc3Nc3cnc(C(F)(F)F)cn3)cn2)[C@H](F)C1` [Example 147, N-(6-{[(3R,4S)-3-fluoro-1-propylpiperidin-4-yl]oxy}pyridin-3-yl)-3-methyl-5-{[5-(trifluoromethyl)pyrazin-2-yl]amino}-1,2-thiazole-4-carboxamide] showed a pIC50 (CDK2/CycE) of under 4.70 and a pIC50 [1] of under 4.70.

With `CCCCN1CC[C@H](Oc2ccc(NC(=O)c3c(C)nsc3Nc3cnc(C(F)(F)F)cn3)cn2)[C@H](F)C1` [Example 148, N-(6-{[(3R,4S)-1-butyl-3-fluoropiperidin-4-yl]oxy}pyridin-3-yl)-3-methyl-5-{[5-(trifluoromethyl)pyrazin-2-yl]amino}-1,2-thiazole-4-carboxamide] the pIC50 (CDK2/CycE) was under 4.70 and the pIC50 [1] was under 4.70.

Work on `Cc1nsc(Nc2cnc3cc(F)ccc3n2)c1C(=O)Nc1ccc(S(N)(=O)=O)cc1` [Example 149, 5-[(6-fluoroquinoxalin-2-yl)amino]-3-methyl-N-(4-sulfamoylphenyl)-1,2-thiazole-4-carboxamide] yielded a pIC50 (CDK2/CycE) of under 4.70 and a pIC50 [1] of under 4.70.

`Cc1nsc(Nc2ccc(C#N)cn2)c1C(=O)Nc1cccc(S(C)(=O)=O)c1` [Example 150, 5-[(5-cyanopyridin-2-yl)amino]-3-methyl-N-[3-(methylsulfonyl)phenyl]-1,2-thiazole-4-carboxamide] was tested, and the pIC50 (CDK2/CycE) was under 4.70 and the pIC50 [1] was under 4.70.

With `Cc1nsc(Nc2cnc(C(F)(F)F)cn2)c1C(=O)Nc1ccc(F)c(C(N)=O)c1` [Example 151, N-(3-carbamoyl-4-fluorophenyl)-3-methyl-5-{[5-(trifluoromethyl)pyrazin-2-yl]amino}-1,2-thiazole-4-carboxamide] the pIC50 (CDK2/CycE) was under 4.70 and the pIC50 [1] was 5.37.

Molecule `CC(=O)Nc1cc(NC(=O)c2c(C)nsc2Nc2ccc(C#N)cn2)ccc1F` [Example 152, N-(3-acetamido-4-fluorophenyl)-5-[(5-cyanopyridin-2-yl)amino]-3-methyl-1,2-thiazole-4-carboxamide] has a pIC50 (CDK2/CycE) of under 4.70 and a pIC50 [1] of under 4.70.

Work on `Cc1nsc(Nc2cnc(C(F)(F)F)cn2)c1C(=O)Nc1ccc(C(=O)NCCN2CCCC(F)(F)C2)cc1` [Example 153, N-(4-{[2-(3,3-difluoropiperidin-1-yl)ethyl]carbamoyl}phenyl)-3-methyl-5-{[5-(trifluoromethyl)pyrazin-2-yl]amino}-1,2-thiazole-4-carboxamide] yielded a pIC50 (CDK2/CycE) of under 4.70 and a pIC50 [1] of 4.85.

For `Cc1nsc(Nc2cnc(C(F)(F)F)cn2)c1C(=O)Nc1ccc(C(=O)N2CCN(CC(F)F)CC2)cc1` [Example 154, N-(4-{[4-(2,2-difluoroethyl)piperazin-1-yl]carbonyl}phenyl)-3-methyl-5-{[5-(trifluoromethyl)pyrazin-2-yl]amino}-1,2-thiazole-4-carboxamide], the pIC50 (CDK2/CycE) was under 4.70 and the pIC50 [1] was under 4.70.

Molecule `Cc1nsc(Nc2cncc(C(F)(F)F)n2)c1C(=O)Nc1ccc(C(=O)NCCN2CCCC(F)C2)cc1` (centres unmarked) [Example 155, N-(4-{[2-(3-fluoropiperidin-1-yl)ethyl]carbamoyl}phenyl)-3-methyl-5-{[6-(trifluoromethyl)pyrazin-2-yl]amino}-1,2-thiazole-4-carboxamide] has a pIC50 (CDK2/CycE) of 5.39 and a pIC50 [1] of under 4.70.

`Cc1nsc(Nc2cnc3ccccc3n2)c1C(=O)Nc1ccc(C(=O)NCCN2CCCC(F)(F)C2)cc1` [Example 156, N-(4-{[2-(3,3-difluoropiperidin-1-yl)ethyl]carbamoyl}phenyl)-3-methyl-5-(quinoxalin-2-ylamino)-1,2-thiazole-4-carboxamide] was tested, and the pIC50 (CDK2/CycE) was under 4.70 and the pIC50 [1] was 4.72 and < 4.70.

`Cc1nsc(Nc2cnc3ccccc3n2)c1C(=O)Nc1ccc(C(=O)N2CCN(CC(F)F)CC2)cc1` [Example 157, N-(4-{[4-(2,2-difluoroethyl)piperazin-1-yl]carbonyl}phenyl)-3-methyl-5-(quinoxalin-2-ylamino)-1,2-thiazole-4-carboxamide] was tested, and the pIC50 (CDK2/CycE) was under 4.70 and the pIC50 [1] was under 4.70.

With `Cc1nsc(Nc2cnc3ccccc3n2)c1C(=O)Nc1ccc(C(=O)NC2CN(C(=O)OC(C)(C)C)CC(F)(F)C2)cc1` (centres unmarked) [Example 158, tert-butyl 3,3-difluoro-5-{[4-({[3-methyl-5-(quinoxalin-2-ylamino)-1,2-thiazol-4-yl]carbonyl}amino)benzoyl]amino} piperidine-1-carboxylate] the pIC50 (CDK2/CycE) was under 4.70 and the pIC50 [1] was under 4.70.

Work on `Cc1nsc(Nc2cnc3ccccc3n2)c1C(=O)Nc1ccc(C(=O)N2CCCN(CC(F)(F)F)CC2)cc1` [Example 159] yielded a pIC50 (CDK2/CycE) of under 4.70 and a pIC50 [1] of under 4.70.

`Cc1nsc(Nc2cnc(C(F)(F)F)cn2)c1C(=O)Nc1ccc(OC2CCN(C(C)C)CC2)nc1` [Example 160, N-{6-[(1-isopropylpiperidin-4-yl)oxy]pyridin-3-yl}-3-methyl-5-{[5-(trifluoromethyl)pyrazin-2-yl]amino}-1,2-thiazole-4-carboxamide] showed a pIC50 (CDK2/CycE) of under 4.70 and a pIC50 [1] of under 4.70.

In the case of `Cc1nsc(Nc2cnc(C(F)(F)F)cn2)c1C(=O)Nc1ccc(OC2CCN(CCF)CC2)c(F)c1` [Example 162, N-(3-fluoro-4-{[1-(2-fluoroethyl)piperidin-4-yl]oxy}phenyl)-3-methyl-5-{[5-(trifluoromethyl)pyrazin-2-yl]amino}-1,2-thiazole-4-carboxamide], the pIC50 (CDK2/CycE) was under 4.70 and the pIC50 [1] was under 4.70.

`Cc1nsc(Nc2cnc(C(F)(F)F)cn2)c1C(=O)Nc1ccc(OC2CCN(CC(F)(F)F)CC2)c(F)c1` [Example 163, N-(3-fluoro-4-{[1-(2,2,2-trifluoroethyl)piperidin-4-yl]oxy}phenyl)-3-methyl-5-{[5-(trifluoromethyl)pyrazin-2-yl]amino}-1,2-thiazole-4-carboxamide] was tested, and the pIC50 (CDK2/CycE) was under 4.70 and the pIC50 [1] was under 4.70.

In the case of `Cc1nsc(Nc2cnc(C(F)(F)F)cn2)c1C(=O)Nc1ccc(OC2CCN(CC(F)F)CC2)c(F)c1` [Example 164, N-(4-{[1-(2,2-difluoroethyl)piperidin-4-yl]oxy}-3-fluorophenyl)-3-methyl-5-{[5-(trifluoromethyl)pyrazin-2-yl]amino}-1,2-thiazole-4-carboxamide], the pIC50 (CDK2/CycE) was under 4.70 and the pIC50 [1] was under 4.70.

`Cc1nsc(Nc2cnc(C(F)(F)F)cn2)c1C(=O)Nc1ccc(C(=O)NC2CCN(CC(F)(F)F)CC2)cc1` [Example 165, 3-methyl-N-(4-{[1-(2,2,2-trifluoroethyl)piperidin-4-yl]carbamoyl}phenyl)-5-{[5-(trifluoromethyl)pyrazin-2-yl]amino}-1,2-thiazole-4-carboxamide] gave a pIC50 (CDK2/CycE) of under 4.70 and a pIC50 [1] of under 4.70.

`Cc1nsc(Nc2cncc(C(F)(F)F)n2)c1C(=O)Nc1ccc(OCC2CCCN(C(=O)OC(C)(C)C)C2)nc1` (centres unmarked) [Example 166, tert-butyl 3-{[(5-{[(3-methyl-5-{[6-(trifluoromethyl)pyrazin-2-yl]amino}-1,2-thiazol-4-yl)carbonyl]amino}pyridin-2-yl)oxy]methyl}piperidine-1-carboxylate] was tested, and the pIC50 (CDK2/CycE) was under 4.70 and the pIC50 [1] was under 4.70.
